{"source": "patent US20240285631A1", "about": "“METHODS OF TREATING VASCULAR MALFORMATIONS” (priority 2023, published 2024)", "key": {"[1]": {"system": "vascular malformations in Alk1EC^iKO pups", "assay": "Blue latex dye vascular perfusion of brain, lungs and intestinal tract in Alk1EC^iKO pups", "type": "in vivo, mouse", "description": "FIG. 5A illustrates a timeline used for tamoxifen (Tx) injection and CDK4/6i treatment of Alk1EC^iKO pups. FIG. 5B illustrates representative images showing retinal vasculature labelled with IB4 from control, Alk1EC^iKO, and Alk1EC^iKO+CDK4/6i-treated P5 animals. Bar graphs showing (FIG. 5C) quantification of AV shunt number per retina, (FIG. 5D) vascular density, and (FIG. 5E) vascular progression. (N=8 to 10 retinas/group, at least 4 mice). Data are mean±SEM, One-way ANOVA, *p≤0.05, **p≤0.01). FIG. 5F illustrates a timeline used for Tx injection and CDK4/6i treatment of Alk1EC^iKO pups for blue latex dye perfusion experiments. FIG. 5G illustrates blue latex dye vascular perfusion in brains from control, Alk1EC^iKO, and Alk1EC^iKO+CDK4/6i-treated P7 animals. […] FIG. 5H illustrates the quantification of left middle cerebral artery (MCA) and basilar artery (BA) in control, Alk1EC^iKO, and Alk1EC^iKO+CDK4/6i-treated animals. FIG. 5I illustrates the quantification of the number of latex filled veins in control, Alk1EC^iKO, and Alk1EC^iKO+CDK4/6i-treated animals. (N=4 to 6 mice/group. Data are mean±SEM, one-way ANOVA with Holm-Šidàk's multiple comparison test, *p≤0.05, **p≤0.01, ***p<0.001). Scale bar (G): 4 mm.\nAbout 50% of HHT patients harbor mutations in the Acvrl1 gene^1, which encodes for the ALK1 receptor. To validate the clinical relevance of the use of Palbociclib for the treatment of HHT, we crossed Cdh5Cre^ERT2 mice with Alk1^flox/flox mice (6-8-week-old) to generate an endothelial-specific inducible deletion of Alk1 (referred to as Alk1EC^iKO), which is an established preclinical mouse model of human HHT type 2^12,25. Neonatal Alk1EC^iKO pups received a single i.p. injection of tamoxifen at P3 to induce Alk1 gene deletion and were then treated with Palbociclib via oral gavage at P4, and their retinal vasculature was analyzed at P5 (FIG. 5A). […] Due to the relatively short survival time post-tamoxifen induction in Alk1EC^iKO mice (approximately 48 hours), our study is limited to a single Palbociclib injection, which represents a technical challenge in exploring additional treatments. […] Single Cell RNA sequencing analysis of Palbociclib effects on endothelial arteriovenous identity in Alk1EC^iKO mice."}, "[2]": {"system": "Retinoblastoma protein (Rb)", "assay": "Western Blot of Rb Ser 807/811 phosphorylation in HUVECs", "type": "cell-based, human", "conditions": "24 h", "method": "FIG. 11B illustrates Western Blot analysis of Rb Ser 807/811 phosphorylation in response to Palbociclib (CDK4/6i) (24 h) in HUVECs.\nPrimary Human Umbilical Vein Endothelial Cells (HUVECs) were purchased from Lonza (C2519AS) and cultured in EGM™2-Bulletkit™ medium (CC-3156 & CC-4176, Lonza). For VEGF-A- or BMP9-induced signaling response in HUVECs, cells (70% confluent) were treated with Palbociclib (3 mg/ml, CDK4/6i) for 12 h in EGM-2 medium prior to starvation overnight in EMB-2 media (CC-3162 Lonza) supplemented with 0.1% FBS and Palbociclib (3 mg/ml). Cells were stimulated with either VEGF-A (25 ng/ml for 15 min) or BMP9 (1 ng/ml for 2 h) and harvested for Western Blot analysis.\nCells were lysed in RIPA buffer (Abcam, ab206996) and equal amounts of proteins were separated on 4-15% gradient Criterion precast gels (Bio-Rad 567-1084). Proteins were then transferred onto nitrocellulose membranes (Bio-Rad). Western Blots were developed with chemiluminescence HRP substrate (Radiance plus, Azure Biosystems AC2103) on a digital image analyzer, Azure Imager c300."}, "[3]": {"system": "human umbilical vein endothelial cells", "assay": "Proliferation of human umbilical vein endothelial cells assessed by EdU uptake", "type": "cell-based", "conditions": "in vitro, dose response", "description": "FIG. 16 illustrates palbociclib, CVT-313 and ribociclib dose response effects on proliferation of human umbilical vein endothelial cells assessed by EdU uptake.\nThis example discusses that endothelial cell cycle dysregulation is a mechanism involved in the development of arterio-venous malformations in HHT, as well as other types of vascular malformations named above. Palbociclib, a FDA-approved cell cycle inhibitor, could be used to prevent arterio-venous and other malformations, including venous, capillary, lymphatic and cerebral cavernous malformations."}, "[4]": {"system": "retinal arteries of anti-BMP9/10-treated animals", "assay": "Arteriovenous identity immunostaining (JAGGED1, aSMA, ENDOMUCIN) of retinal flat-mounts, BMP9/10 Abs model", "type": "in vivo, mouse", "conditions": "P7", "description": "FIG. 12A illustrates the timeline used for BMP9/10 Abs and CDK4/6i treatments in C57bl/6 pups. FIGS. 12B-F JAGGED1 (green) and IB4 (white) in (FIG. 12B), aSMA (green) and IB4 (white) staining in (FIG. 12D) and ENDOMUCIN (green) and IB4 (white) in (FIG. 12F) of retinal flat-mounts from control, BMP9/10 Abs-treated, BMP9/10 Abs- and CDK4/6i-treated P7 C57bl/6 animals. (A: artery; V: vein; white arrow heads: AVMs). Quantification of JAGGED1 fluorescence intensity in retinal arterial ECs (FIG. 12C), of aSMA arterial coverage (FIG. 12E) and ENDOMUCIN in retinal arteries (FIG. 12G) (N=4 animals/group, 10 to 14 region of interest analyzed/group. Data are mean±SEM, one-way ANOVA with Holm-Sidak's multiple comparison test, ns p>0.05; ***p<0.01). Scale bars: […].\nFinally, we assessed the effects of Palbociclib treatment on arteriovenous identity in anti-BMP9/10-treated animals following the dosing protocol shown in FIG. 12A. […] Finally, ENDOMUCIN, which is enriched in veins and capillaries in control retinas, was ectopically expressed in arteries and AV shunts in the retinal vasculature of anti-BMP9/10-treated animals, compared to controls (FIGS. 12F and 12G).\nEyes from P7 pups were pre-fixed in 4% PFA for 20 min at room temperature (RT). The retinas were dissected out and permeabilized for 30 min at RT in 0.5% Triton X-100 and then incubated with antibodies in retina buffer (1% FBS, 3% BSA and 0.5% Triton X-100 in PBS1x) overnight at 4° C. Retinas were washed with PBS1X and incubated with secondary antibodies in retina buffer for 2 h at RT. Retinas were washed with PBS1X, mounted with DAKO mounting medium (DAKO) and imaged using confocal microscopy (LEICA SP8 and LASX software). Quantification of vascular progression, density, AVM numbers and vessel diameters in the retinal vasculature were performed with Image J software."}, "[5]": {"system": "brain vascular anomalies in adult Alk1 mutant animals", "assay": "Brain vasculature of adult Alk1 mutant animals (HHT model)", "type": "in vivo, mouse", "conditions": "3 doses 120 mg/kg oral gavage at day 7, 9 and 11 after tamoxifen, 3 weeks after induction", "description": "Euthanized animals have been perfused with colored reagent to visualize the blood vessels."}}, "note": "“Also recorded” adds a separate entry of the source."}
{"smiles": "CC(=O)c1c(C)c2cnc(Nc3ccc(N4CCNCC4)cn3)nc2n(C2CCCC2)c1=O", "note": "[Palbociclib, 6-acetyl-8-cyclopentyl-5-methyl-2-[5-(1-piperazinyl)pyridine-2-ylamino]pyrido[2,3-d]pyrimidin-7(8H)-one]", "values": [{"measurement": "veins filled with blue latex (arteriovenous shunts) in the intestinal tract", "setting": "[1]; P7, gastrointestinal tract", "value": "absent"}, {"measurement": "diameter of the basilar and middle cerebral arteries", "setting": "[1]; brain, single dose of Palbociclib at P4", "value": "trend toward normalization"}, {"measurement": "number of latex-filled veins in brain", "setting": "[1]; brain, vs untreated Alk1EC^iKO", "value": "significantly reduced"}, {"measurement": "latex blue dye extravasation across the intrapulmonary bed", "setting": "[1]; lungs", "value": "dye extravasation was reduced"}, {"measurement": "Rb phosphorylation", "setting": "[2]", "value": "induced hypo-phosphorylation of the Retinoblastoma protein (Rb)"}, {"measurement": "EC proliferation assessed by EdU uptake", "setting": "[3]", "value": "inhibit EC proliferation"}, {"measurement": "JAG1 protein expression in retinal arterial ECs", "setting": "[4]; BMP9/10 Abs + CDK4/6i vs BMP9/10 Abs only", "value": "increased in arterial ECs"}, {"measurement": "ectopic arterial expression of ENDOMUCIN", "setting": "[4]; BMP9/10 Abs + CDK4/6i", "value": "did not prevent the arterial expression of ENDOMUCIN"}, {"measurement": "smooth muscle cell (aSMA) coverage of retinal arteries", "setting": "[4]; BMP9/10 Abs + CDK4/6i", "value": "prevented the loss of SMC coverage on arteries"}, {"measurement": "brain vascular anomalies in adult Alk1 mutant animals", "setting": "[5]", "value": "regressed anomalies observed in the brain vasculature; also recorded: regressed brain vascular anomalies"}]}
